US20060166984A1, “Amino substituted benzo(hetero)cyclic derivatives” (priority 2003, published 2006)
Read-outs that look alike come from different tables or passages of the source.

Assays:
[1] = test system: Green Peach Aphid (myzus persicae); test: Green Peach Aphid foliar dip test on pepper plants; type: in vivo; settings: 120 h, read-out: mortality in comparison with untreated controls
Protocol: Green Peach Aphid (myzus persicae)
(§1) The active compounds were formulated in 50:50 acetone:water and 100 ppm Kinetic® surfactant.
Pepper plants in the 2nd leaf-pair stage (variety ‘California Wonder’) were infested with approximately 40 laboratory-reared aphids by placing infested leaf sections on top of the test plants. The leaf sections were removed after 24 hours. The leaves of the intact plants were dipped into gradient solutions of the test compound and allowed to dry. Test plants were maintained under fluorescent light (24 hour photoperiod) at about 25° C. and […] relative humidity. Aphid mortality on the treated plants, relative to mortality on check plants, was determined after 5 days.

[2] = test system: Cotton Aphid (aphis gossypii); test: Cotton Aphid foliar dip test on cotton cotyledons; type: in vivo; settings: 120 h, counts after 5 days, read-out: mortality in comparison with untreated controls
Text: Cotton Aphid (aphis gossypii)
The active compounds were formulated in 50:50 acetone:water and 100 ppm Kinetic® surfactant (a nonionic wetting agent which is a blend of polyalkyleneoxide modified polydimethylsiloxane and polyoxypropylene-polyoxyethylene copolymers, available from Helena Chemical Company, Memphis, Tenn. 38119, U.S.A.).
Cotton plants at the cotyledon stage (one plant per pot) were infested by placing a heavily infested leaf from the main colony on top of each cotyledon. The aphids were allowed to transfer to the host plant overnight, and the leaf used to transfer the aphids was removed. The cotyledons were dipped in the test solution and allowed to dry. After 5 days, mortality counts were made.

[3] = test system: Silverleaf whitefly (bemisia argentifolii); test: Silverleaf whitefly test on dipped cotton cotyledons; type: in vivo; settings: 72 h, whitefly adults on cotton, 3 days after treatment, read-out: mortality compared to untreated controls
Protocol: Silverleaf whitefly (bemisia argentifolii)
as §1
Selected cotton plants were grown to the cotyledon state (one plant per pot). The cotyledons were dipped into the test solution to provide complete coverage of the foliage and placed in a well-vented area to dry. Each pot with treated seedling was placed in a plastic cup and 10 to 12 whitefly adults (approximately 3-5 day old) were introduced. The cups were covered with a re-usable screened lid (150 micron mesh polyester screen PeCap from Tetko Inc). Test plants were maintained in the holding room at about 25° C. and 20-40% relative humidity for 3 days avoiding direct exposure to the fluorescent light (24 hour photoperiod) to prevent trapping of heat inside the cup.
Mortality was assessed 3 days after treatment of the plants.

[4] = test system: Twospotted Spider Mite (Tetranychus urticae); test: Twospotted Spider Mite dip test on lima bean plants; type: in vivo; settings: 120 h, read-out: mortality compared to untreated controls
Protocol: Twospotted Spider Mite (Tetranychus urticae)
Lima bean plants in the 1st leaf-pair stage (variety ‘Henderson’) were infested with approximately 100 laboratory-reared mites per leaf by placing infested leaf sections on top of the test plants. The leaf sections were removed after 24 hours. The foliage of the intact plants was dipped into gradient solutions of the test compounds. Mite mortality was determined after 5 days.

Bean Aphid (Aphis fabae) = test: Bean Aphid dip test on nasturtium plants; type: in vivo; settings: 72 h, after 3 days, read-out: mortality compared to untreated controls
Protocol: Nasturtium plants in the 1st leaf-pair stage (variety ‘Mixed Jewle’ were infested with approximately 25 laboratory-reared aphids by placing infested cut plants on top of the test plants. The cut plants were removed after 24 hours. The foliage and stem of the test plants were dipped into gradient solutions of the test compound. Aphid mortality was determined after 3 days.

[5] = 300 ppm, green peach aphid on pepper, after 5 days
[6] = 300 ppm, spider mite on lima bean, after 5 days

melting point | Compound | mortality at 300 ppm [2] | mortality at 300 ppm [1, 5] | mortality at 300 ppm [4, 6] | also measured
– | CN1CCN(c2cccc3ccccc23)CC1 [Compound 5, 1-Methyl-4-(1-naphthyl)-piperazine] | – | – | – | mortality at 300 ppm [1]: > 85%
– | CN1CCN(C2CCCc3ccc(F)cc32)CC1 (stereo not shown) [Compound 20, 1-(7-Fluoro-1,2,3,4-tetrahydro-1-naphthalenyl)-4-methylpiperazine] | > 85% | > 85% | > 70% | mortality at 300 ppm [3]: > 95%
– | CN1CCN(C2CCSc3ccc(Cl)cc32)CC1 (stereo not shown) [Compound 16, 1-(6-Chloro-3,4-dihydro-2H-thiochromen-4-yl)-4-methylpiperazine] | > 85% | > 85% | – | mortality at 300 ppm (Bean Aphid (Aphis fabae)): > 70%
– | CN1CCN(C2=CCCc3ccc(F)cc32)CC1 [Compound 21, 1-(7-Fluoro-3,4-dihydro-1-naphthalenyl)-4-methylpiperazine] | – | – | > 70% | –
– | CN1CCN([C@@H]2C[C@@H](c3ccc(F)cc3)c3ccc(Cl)cc32)CC1 (relative stereo) [Compound 61, Trans-1-[3-(4-fluorophenyl)-6-chloro-2,3-dihydro-1H-inden-1-yl]4-methylpiperazine] | > 85% | > 85% | – | –
68 to 70 °C | CCN1CCN(C2=CCCc3ccccc32)CC1 | – | – | – | –
158 to 160 °C | CN1CCN(C2=Cc3ccccc3C2)CC1 | – | – | – | –
– | CN1CCN(c2nccc3ccccc23)CC1 [Compound 12, 1-(1-Isoquinolinyl)-4-methylpiperazine] | – | – | – | mortality at 300 ppm [4]: > 70%
– | CN1CCN(C2CCc3ccccc3C2)CC1 (stereo not shown) [Compound 14, 1-(1,2,3,4-Tetrahydro-2-naphthalenyl)-4-methylpiperazine] | – | – | > 70% | –
124 to 126 °C | CCN1CCN(C2=Cc3ccccc3C2)CC1 | – | – | – | –
